These results are taken from patent US20160271063A1, “STERILE S-ADENOSYL METHIONINE WITH A HIGH CONTENT OF ACTIVE ISOMER FOR INJECTABLE SOLUTIONS, AND PROCEDURE FOR OBTAINING IT” (GNOSIS S.P.A., priority 2013, published 2016).

“Also recorded” adds a separate entry of the source.

Data set [1] can be described thus: Particle size (laser particle-size distribution analysis). The data set is classed as physicochemical. To be noted: for Particle size D50μ: Test in Mobile Minor unit, IN/OUT temperature differs per test.
Data set [2] is described as follows: Residual humidity of the powder. The data set is classed as physicochemical. The following applies: for Humidity %: Test in Mobile Minor unit, IN/OUT temperature differs per test.
Data set [3] in a line: S,S isomer content by HPLC (area of active isomer to sum of both isomers). The data set is classed as physicochemical. The following applies: for S,S Stereoisomer %: Test in Mobile Minor unit, IN/OUT temperature differs per test; for enantiomeric excess of S,S isomer: sterile spray-dried product. As to the method: The S-adenosyl methionine of the invention preferably has a water content below 2% by weight and an active enantiomer content exceeding 75% of the total SAMe. The enantiomer content is determined by the percentage of the area of active isomer to the sum of the area of both isomers in the HPLC analysis.

The conditions of data set [4]: sterile spray-dried product.
Data set [5] in a line: BET surface area. The data set is classed as physicochemical.
A short description of data set [6]: Microscope appearance of particles. The data set is classed as physicochemical.
A short description of data set [7]: Stability of SAMe salt solutions. The data set is classed as physicochemical.
Where [8] appears, read: Table 2, comparison with the medicament on the market.
[9] abbreviates: spray-dried, TIN 150° C., TOUT 95-96° C.

Consider `C[S+](CC[C@H](N)C(=O)[O-])C[C@H]1O[C@@H](n2cnc3c(N)ncnc32)[C@H](O)[C@@H]1O.O=S(=O)(O)CCCCS(=O)(=O)O` (single isomer, unassigned) [Example 3, SAMe 1,4-butanedisulphonate], for which the “Particle size D50μ” value in data set [1] is reported as 9 μ. In data set [2], this compound returned a Humidity % of 1.63%. Moreover, in data set [3], the “S,S Stereoisomer %” value was determined as 75.65% and the “enantiomeric excess of S,S isomer” value is “exceeding 80%”. Besides, the endotoxin level entry in data set [4] is on record as “less than 0.118 U/g”.
As to `C[S+](CC[C@H](N)C(=O)[O-])C[C@H]1O[C@@H](n2cnc3c(N)ncnc32)[C@H](O)[C@@H]1O.O=S(=O)(O)CCCCS(=O)(=O)O` (single isomer, unassigned) [Example 4, SAMe 1,4-butanedisulphonate], the “Particle size D50μ” value in data set [1] is given as 8 μ. The Humidity % in data set [2] was determined as 1.63%. In addition, in data set [3], the “S,S Stereoisomer %” value is 72.60% and the “enantiomeric excess of S,S isomer” value is listed as “exceeding 80%”. For the same compound, the endotoxin level result in data set [4] is “less than 0.118 U/g”.
For `C[S+](CC[C@H](N)C(=O)[O-])C[C@H]1O[C@@H](n2cnc3c(N)ncnc32)[C@H](O)[C@@H]1O.O=S(=O)(O)CCCCS(=O)(=O)O` (single isomer, unassigned) [Example 5, SAMe 1,4-butanedisulphonate], the “Laser particle-size distribution analysis, 10%” value in data set [1] (10%) turned out to be 10% = 14.4 micron. Moreover, the “Laser particle-size distribution analysis, 50%” value in data set [1] (50%) turned out to be 50% = 28.7 micron. Besides, the “Laser particle-size distribution analysis, 90%” value in data set [1] (90%) is given as 90% = 53.8 micron. Besides, the “Particle size D50μ” value in data set [1] is 9 μ. The compound further returned a Humidity in data set [2] (setting [8]) of 1.20%. The same compound displayed a Humidity % in data set [2] of 1.88%. Moreover, the “SS isomer (%)” value in data set [3] (setting [8]) was found to be 73.1%. For the same compound, the “S,S Stereoisomer %” value in data set [3] was 76.63%. Also, the “BET surface area (m2/g)” value in data set [5] was 0.3460 m2/g. The Microscope entry in data set [6] was “Regular,; also recorded: spherical particles”.
With `C[S+](CC[C@H](N)C(=O)[O-])C[C@H]1O[C@@H](n2cnc3c(N)ncnc32)[C@H](O)[C@@H]1O.O=S(=O)(O)CCCCS(=O)(=O)O` (single isomer, unassigned) [Example 7, SAMe 1,4-butanedisulphonate, reference compound], the “Particle size D50μ” value in data set [1] is 10 μ. In addition, the Humidity % in data set [2] is given as 2.65%. Besides, in data set [3], the “enantiomeric ratio, S,S isomer” value is recorded as 70% and the “S,S Stereoisomer %” value is 75.95%.
For `C[S+](CC[C@H](N)C(=O)[O-])C[C@H]1O[C@@H](n2cnc3c(N)ncnc32)[C@H](O)[C@@H]1O.O=S(=O)(O)CCCCS(=O)(=O)O` (some centres unmarked) [Example 1, SAMe 1,4-butanedisulphonate], the “particle size D50” value in data set [1] (setting [9]) was 10 microns. In data set [2] (setting [9]), this compound showed a residual humidity of 1.50%. Besides, the stereoisomeric ratio in data set [3] (setting [9]) stood at 73.77%.
With `C[S+](CC[C@H](N)C(=O)[O-])C[C@H]1O[C@@H](n2cnc3c(N)ncnc32)[C@H](O)[C@@H]1O` (some centres unmarked) [SAMe SD4, S-adenosyl methionine], the “stability of the solution” value in data set [7] (at ambient temperature) was “break down rapidly”; in data set [7] (stored at a cold temperature, unless microbial contamination is present), “stable”.
